Measured values: PubChem BioAssay AID2060494 (Molecular Pharmacology Branch, DTP, NCI, 2025)

Tested on: 435261-313-R-J1-PDC complex spheroid viability
Assay: Anticancer human tumor 435261-313-R-J1-PDC patient-derived colon adenocarcinoma cell line growth inhibition [GQUAD]
Conditions: for IC50: curve of first compound; for viability, T/C: stronger effect = lower value
Procedure, shortened: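 Tumor cells were grown as complex spheroids with HUVEC endothelial cells and mesenchymal stem cells as stroma. G-quadruplex stabilizers were combined with targeted agents over half-log dilutions from near the clinical Cmax, or from 10 microM.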

[1] = second compound 0.0316 µM, first compound 0.0316 µM
[2] = second compound 0.0316 µM, first compound 0.1 µM
[3] = second compound 0.0316 µM, first compound 0.316 µM
[4] = second compound 0.0316 µM, first compound 1 µM
[5] = second compound 0.0316 µM, first compound 3.16 µM
[6] = second compound 0.0316 µM, first compound 10 µM
[7] = second compound 0.1 µM, first compound 0.0316 µM
[8] = second compound 0.1 µM, first compound 0.1 µM
[9] = second compound 0.1 µM, first compound 0.316 µM
[10] = second compound 0.1 µM, first compound 1 µM
[11] = second compound 0.1 µM, first compound 3.16 µM
[12] = second compound 0.1 µM, first compound 10 µM
[13] = second compound 0.316 µM, first compound 0.0316 µM
[14] = second compound 0.316 µM, first compound 0.1 µM
[15] = second compound 0.316 µM, first compound 0.316 µM
[16] = second compound 0.316 µM, first compound 1 µM
[17] = second compound 0.316 µM, first compound 3.16 µM
[18] = second compound 0.316 µM, first compound 10 µM
[19] = second compound 1 µM, first compound 0.0316 µM
[20] = second compound 1 µM, first compound 0.1 µM
[21] = second compound 1 µM, first compound 0.316 µM
[22] = second compound 1 µM, first compound 1 µM
[23] = second compound 1 µM, first compound 3.16 µM
[24] = second compound 1 µM, first compound 10 µM
[25] = second compound 3.16 µM, first compound 0.0316 µM
[26] = second compound 3.16 µM, first compound 0.1 µM
[27] = second compound 3.16 µM, first compound 0.316 µM
[28] = second compound 3.16 µM, first compound 1 µM
[29] = second compound 3.16 µM, first compound 3.16 µM
[30] = second compound 3.16 µM, first compound 10 µM
[31] = second compound 10 µM, first compound 0.0316 µM
[32] = second compound 10 µM, first compound 0.1 µM
[33] = second compound 10 µM, first compound 0.316 µM
[34] = second compound 10 µM, first compound 1 µM
[35] = second compound 10 µM, first compound 3.16 µM
[36] = second compound 10 µM, first compound 10 µM
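Also: spheroids exposed to the agents for seven days before readout.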
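For viability, T/C in this document: percent of vehicle control viability with DMSO wells as 100%.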

CCCS(=O)(=O)Nc1ccc(F)c(C(=O)c2c[nH]c3ncc(-c4ccc(Cl)cc4)cc23)c1F + Cc1[nH]c2ccc(F)cc2c1-c1nc2c3cccnc3c3ncccc3c2[nH]1
IC50 (second compound 0.0316 µM): 5200 nM
IC50 (second compound 0.1 µM): 4080 nM
IC50 (second compound 0.316 µM): 4060 nM
IC50 (second compound 1 µM): 3250 nM
IC50 (second compound 3.16 µM): < 31.6 nM
IC50 (second compound 10 µM): < 31.6 nM
viability, T/C [1]: 77.2%
viability, T/C [2]: 87.3%
viability, T/C [3]: 109%
viability, T/C [4]: 115%
viability, T/C [5]: 78.5%
viability, T/C [6]: 12.7%
viability, T/C [7]: 60.5%
viability, T/C [8]: 105%
viability, T/C [9]: 116%
viability, T/C [10]: 70.9%
viability, T/C [11]: 62.2%
viability, T/C [12]: 15.5%
viability, T/C [13]: 66.5%
viability, T/C [14]: 73.7%
viability, T/C [15]: 76.7%
viability, T/C [16]: 70%
viability, T/C [17]: 59.9%
viability, T/C [18]: 14%
viability, T/C [19]: 41.2%
viability, T/C [20]: 70%
viability, T/C [21]: 40.5%
viability, T/C [22]: 55.5%
viability, T/C [23]: 50.8%
viability, T/C [24]: 11.7%
viability, T/C [25]: 30.2%
viability, T/C [26]: 29.2%
viability, T/C [27]: 24.5%
viability, T/C [28]: 19.6%
viability, T/C [29]: 28.4%
viability, T/C [30]: 7.37%
viability, T/C [31]: 27.2%
viability, T/C [32]: 23%
viability, T/C [33]: 24.6%
viability, T/C [34]: 27.1%
viability, T/C [35]: 26.1%
viability, T/C [36]: 8.52%

Cc1[nH]c2ccccc2c1CCNCc1ccc(/C=C/C(=O)NO)cc1 + Cc1[nH]c2ccc(F)cc2c1-c1nc2c3cccnc3c3ncccc3c2[nH]1
IC50 (second compound 0.0316 µM): 97.9 nM
IC50 (second compound 0.1 µM): 105 nM
IC50 (second compound 0.316 µM): 77.9 nM
IC50 (second compound 1 µM): 106 nM
IC50 (second compound 3.16 µM): < 0.999 nM
IC50 (second compound 10 µM): < 0.999 nM
viability, T/C (second compound 0.0316 µM, first compound 0.000999 µM): 86%
viability, T/C (second compound 0.0316 µM, first compound 0.00316 µM): 70.3%
viability, T/C (second compound 0.0316 µM, first compound 0.00999 µM): 77.2%
viability, T/C [1]: 98.1%
viability, T/C (second compound 0.0316 µM, first compound 0.0999 µM): 49.4%
viability, T/C [3]: 4.41%
viability, T/C (second compound 0.1 µM, first compound 0.000999 µM): 91.7%
viability, T/C (second compound 0.1 µM, first compound 0.00316 µM): 65.4%
viability, T/C (second compound 0.1 µM, first compound 0.00999 µM): 96.8%
viability, T/C [7]: 66.1%
viability, T/C (second compound 0.1 µM, first compound 0.0999 µM): 53.1%
viability, T/C [9]: 11.9%
viability, T/C (second compound 0.316 µM, first compound 0.000999 µM): 64.1%
viability, T/C (second compound 0.316 µM, first compound 0.00316 µM): 81.8%
viability, T/C (second compound 0.316 µM, first compound 0.00999 µM): 61.8%
viability, T/C [13]: 68.1%
viability, T/C (second compound 0.316 µM, first compound 0.0999 µM): 45.2%
viability, T/C [15]: 9.8%
viability, T/C (second compound 1 µM, first compound 0.000999 µM): 46.7%
viability, T/C (second compound 1 µM, first compound 0.00316 µM): 71.7%
viability, T/C (second compound 1 µM, first compound 0.00999 µM): 49.9%
viability, T/C [19]: 58.6%
viability, T/C (second compound 1 µM, first compound 0.0999 µM): 52.1%
viability, T/C [21]: 7.21%
viability, T/C (second compound 3.16 µM, first compound 0.000999 µM): 41.2%
viability, T/C (second compound 3.16 µM, first compound 0.00316 µM): 39.5%
viability, T/C (second compound 3.16 µM, first compound 0.00999 µM): 24.2%
viability, T/C [25]: 33.8%
viability, T/C (second compound 3.16 µM, first compound 0.0999 µM): 26%
viability, T/C [27]: 0.48%
viability, T/C (second compound 10 µM, first compound 0.000999 µM): 29.5%
viability, T/C (second compound 10 µM, first compound 0.00316 µM): 28.2%
viability, T/C (second compound 10 µM, first compound 0.00999 µM): 28.1%
viability, T/C [31]: 33.3%
viability, T/C (second compound 10 µM, first compound 0.0999 µM): 27.8%
viability, T/C [33]: 0.79%

COc1ccc([C@@H](O)c2cc(-c3ncnc4cc(N5CCOCC5)ccc34)c(F)cc2Cl)nn1 + Cc1cnc(CNC(=O)c2c(=O)c3ccc(N4CCCN(C)CC4)nc3n3c2sc2ccccc23)cn1
IC50 (second compound 0.0316 µM): 631 nM
IC50 (second compound 0.1 µM): 392 nM
IC50 (second compound 0.316 µM): 157 nM
IC50 (second compound 1 µM): < 31.6 nM
IC50 (second compound 3.16 µM): < 31.6 nM
IC50 (second compound 10 µM): < 31.6 nM
viability, T/C [1]: 59.5%
viability, T/C [2]: 67.4%
viability, T/C [3]: 71.8%
viability, T/C [4]: 39.2%
viability, T/C [5]: 27.8%
viability, T/C [6]: 20.3%
viability, T/C [7]: 49.8%
viability, T/C [8]: 65%
viability, T/C [9]: 48.9%
viability, T/C [10]: 41.4%
viability, T/C [11]: 26.3%
viability, T/C [12]: 16.8%
viability, T/C [13]: 47.6%
viability, T/C [14]: 60.9%
viability, T/C [15]: 44.6%
viability, T/C [16]: 34.8%
viability, T/C [17]: 25.6%
viability, T/C [18]: 13.4%
viability, T/C [19]: 32.3%
viability, T/C [20]: 42.6%
viability, T/C [21]: 34.8%
viability, T/C [22]: 28.4%
viability, T/C [23]: 17.2%
viability, T/C [24]: 5.89%
viability, T/C [25]: 5.04%
viability, T/C [26]: 14.9%
viability, T/C [27]: 16.5%
viability, T/C [28]: 0.16%
viability, T/C [29]: 0.14%
viability, T/C [30]: 0.29%
viability, T/C [31]: 0.11%
viability, T/C [32]: 0.16%
viability, T/C [33]: 0.16%
viability, T/C [34]: 0.2%
viability, T/C [35]: 0.17%
viability, T/C [36]: 0.15%
